Assay results: ChEMBL document CHEMBL1130649, “Rational design of a new series of mixed anti-HIV pronucleotides” (Bioorg Med Chem Lett, 1998)

Columns and labels:
[1] = Half-life in RPMI 1640 containing 10% heat inactivated fetal calf serum culture medium at step 1; assay type: ADME, Bos taurus; conditions: cattle
[2] = system: CEM-SS; test: Compound was tested for cytotoxicity against HIV-1 in CEM-SS cells; assay type: functional; conditions: Homo sapiens
[3] = system: CCRF-CEM; test: Compound was tested for inhibitory activity against HIV-1 replication in CEM/TK- cells; assay type: functional, cell-based; conditions: Homo sapiens
[4] = Half-life in total CEM cell extract at Step 1; assay type: ADME, CCRF-CEM; conditions: human
[5] = system: CCRF-CEM; test: Compound was tested for cytotoxicity against HIV-1 in CEM/TK- cells; assay type: functional; conditions: Homo sapiens
[6] = system: CEM-SS; test: Compound was tested for inhibitory activity against HIV-1 replication in CEM-SS cells; assay type: functional, cell-based; conditions: Homo sapiens

Compound | half-life [1] | CC50 [2] | IC50 [3] | half-life [4] | CC50 [5] | IC50 [6]
Cc1cn([C@H]2C[C@H](N=[N+]=[N-])[C@@H](COP(=O)(OCCSC(=O)C(C)(C)C)Oc3ccc(CC(N)C(=O)O)cc3)O2)c(=O)[nH]c1=O.Cl (stereo partly specified) | 86.4 h | > 90 µM | 29 µM | 1.4 h | 90 µM | 0.006 µM
Cc1cn([C@H]2C[C@H](N=[N+]=[N-])[C@@H](COP(=O)(OCCSC(=O)C(C)(C)C)Oc3ccccc3)O2)c(=O)[nH]c1=O (stereo partly specified) | 72 h | > 10 µM | 3.5 µM | 1.2 h | > 10 µM | 0.001 µM
Cc1cn([C@H]2C[C@H](N=[N+]=[N-])[C@@H](CO)O2)c(=O)[nH]c1=O [ZIDOVUDINE] | – | > 100 µM | > 100 µM | – | > 100 µM | 0.006 µM
